Measured values taken from the NIST ThermoML archive (doi:10.1016/j.jct.2017.10.016).
Numbers after ± are expanded uncertainties.

Assay: xn = mol fraction of the nth substance listed
Settings: Liquid, Buoyancy - hydrostatic balance with magnetic suspension - one sinker

C=C(F)C(F)(F)F [2,3,3,3-tetrafluoro-1-propene] + CCC
Settings	mass density [kg/m3]
255.05 K, x1 = 0.217	705.65 ± 3.9
255.24 K, x1 = 0.322	772.45 ± 3.9
257.01 K, x1 = 0.422	831.62 ± 3.8
259.89 K, x1 = 0.322	763.53 ± 3.8
259.9 K, x1 = 0.533	897.69 ± 3.9
260.22 K, x1 = 0.217	695.43 ± 3.9
260.27 K, x1 = 0.422	825.19 ± 3.8
264.82 K, x1 = 0.322	754.19 ± 3.8
264.85 K, x1 = 0.533	887.37 ± 3.9
264.95 K, x1 = 0.217	686.56 ± 3.9
265.38 K, x1 = 0.422	815.01 ± 3.8
269.81 K, x1 = 0.533	876.78 ± 3.8
269.89 K, x1 = 0.217	677.65 ± 3.8
269.95 K, x1 = 0.322	744.13 ± 3.8
270.15 K, x1 = 0.422	805.93 ± 3.8
270.16 K, x1 = 0.113	610.61 ± 3.9
274.77 K, x1 = 0.533	865.74 ± 3.7
274.83 K, x1 = 0.217	668.53 ± 3.8
274.96 K, x1 = 0.113	602.76 ± 3.8
275.02 K, x1 = 0.625	920.19 ± 3.6
275.16 K, x1 = 0.422	794.82 ± 3.8
275.2 K, x1 = 0.322	733.29 ± 3.7
279.91 K, x1 = 0.217	658.85 ± 3.7
279.98 K, x1 = 0.422	784.38 ± 3.7
280.01 K, x1 = 0.113	594.34 ± 3.7
280.03 K, x1 = 0.322	723.1 ± 3.7
280.14 K, x1 = 0.625	907.78 ± 3.6
280.17 K, x1 = 0.533	852.23 ± 3.7
284.9 K, x1 = 0.322	712.55 ± 3.7
284.91 K, x1 = 0.217	649.05 ± 3.6
284.93 K, x1 = 0.113	585.81 ± 3.7
284.95 K, x1 = 0.533	840.56 ± 3.6
284.97 K, x1 = 0.422	774.16 ± 3.7
285.18 K, x1 = 0.625	895.02 ± 3.6
289.94 K, x1 = 0.533	828.05 ± 3.6
289.97 K, x1 = 0.422	762.51 ± 3.6
290 K, x1 = 0.533	827.87 ± 3.6
290.02 K, x1 = 0.113	576.78 ± 3.6
290.02 K, x1 = 0.217	638.62 ± 3.6
290.08 K, x1 = 0.322	700.83 ± 3.6
290.11 K, x1 = 0.625	882 ± 3.6
294.96 K, x1 = 0.322	689.46 ± 3.6
294.96 K, x1 = 0.422	750.87 ± 3.6
294.97 K, x1 = 0.533	815.76 ± 3.5
295 K, x1 = 0.113	567.56 ± 3.5
295.22 K, x1 = 0.625	868.11 ± 3.5
299.04 K, x1 = 0.422	742.17 ± 3.4
299.86 K, x1 = 0.113	558.16 ± 3.5
299.91 K, x1 = 0.533	803.63 ± 3.4
300.13 K, x1 = 0.625	854.48 ± 3.4
